Results taken from US7417054B2, “Naphthyridine compounds” (Janssen Pharmaceutica N.V., priority 2005, dated 2008).
Where two headings read alike, the source gives them in different places.

Columns and labels:
human SERT = target: T1, human SERT (Homo sapiens, UniProt P31645); assay: Human SERT binding, 3H-citalopram displacement on HEK293 membranes; conditions: HEK293 membranes expressing the human SERT, rt for 1 h
T1 construct: expressed in transfected cells; host or cells: HEK293
Experimental: Homogenized HEK293 (Human Embryonic Kidney) membranes expressing the human SERT were incubated with ^3H-citalopram (SERT) at rt for 1 h in 50 mM Tris, 120 mM NaCl, 5 mM KCl (pH 7.4). […] The membranes were washed and the radioactivity was counted as above.

human H3 receptor [1] = target: T2, human H3 receptor (Homo sapiens, UniProt Q9Y5N1); assay: Cyclic AMP accumulation, β-galactosidase reporter in SK-N-MC cells; type: cell-based
T2 construct: expressed in transfected cells; host or cells: SK-N-MC cells
Experimental: Sublines of SK-N-MC cells were created that expressed a reporter construct and the human H3 receptor. The reporter gene (β-galactosidase) is under the control of multiple cyclic AMP responsive elements. In 96-well plates, histamine was added directly to the cell media followed 5 min later by an addition of forskolin (5 μM final concentration). When appropriate, antagonists were added 10 min prior to agonist addition. After a 6-h incubation at 37° C., the media was aspirated and the cells washed with 200 μL of phosphate-buffered saline followed by a second aspiration. Cells were lysed with 25 μL 0.1× assay buffer (10 mM Na-phosphate, pH 8, 0.2 mM MgSO4, 0.01 mM MnCl2) and incubated at rt for 10 min. Cells were then incubated for 10 min with 100 μL of 1× assay buffer containing 0.5% Triton and 40 mM β-mercaptoethanol. Color was developed using 25 μL of 1 mg/mL substrate solution (chlorophenolred β-D galactopyranoside; Roche Molecular Biochemicals, Indianapolis, Ind.) Color was quantitated on a microplate reader at absorbance 570 nm.

human H3 receptor [2] = target: T2, human H3 receptor; assay: H3 receptor binding, N-[3H]-α-methylhistamine displacement on SK-N-MC cell membranes; conditions: cloned human H3 receptor in SK-N-MC cell membranes; 0.8 nM N-[3H]-α-methylhistamine; 60 min at 25° C.
Rat SERT = Rat SERT (Rattus norvegicus, UniProt P31652); assay: Rat brain SERT binding, [3H]-Citalopram displacement on rat brain membranes
Experimental: The supernatant was removed and re-centrifuged at 15,000 rpm for 30 min. […] Membranes were incubated with 0.6 nM [^3H]-Citalopram plus/minus test compounds for 60 min at 25° C. and harvested by rapid filtration over GF/C glass fiber filters (pretreated with 0.3% polyethylenimine) followed by four washes with ice-cold buffer.

[3] = read-out: Rat SERT Ki, rat brain membranes without cerebellum, 0.6 nM [3H]-Citalopram, 60 min at 25° C.

T2 sequence (Q9Y5N1 whole entry): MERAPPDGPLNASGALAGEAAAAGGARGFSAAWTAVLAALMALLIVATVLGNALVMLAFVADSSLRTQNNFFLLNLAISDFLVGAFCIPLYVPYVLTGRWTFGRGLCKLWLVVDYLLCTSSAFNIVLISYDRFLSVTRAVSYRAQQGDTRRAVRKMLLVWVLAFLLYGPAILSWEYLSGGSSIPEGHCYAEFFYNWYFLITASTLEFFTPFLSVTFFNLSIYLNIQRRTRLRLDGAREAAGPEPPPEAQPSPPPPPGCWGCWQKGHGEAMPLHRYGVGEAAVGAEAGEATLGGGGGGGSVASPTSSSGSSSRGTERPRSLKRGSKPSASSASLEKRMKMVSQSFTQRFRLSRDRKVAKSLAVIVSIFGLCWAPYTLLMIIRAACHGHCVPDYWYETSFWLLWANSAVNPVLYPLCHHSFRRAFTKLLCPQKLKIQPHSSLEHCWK
Chain of Rat SERT (P31652 whole entry): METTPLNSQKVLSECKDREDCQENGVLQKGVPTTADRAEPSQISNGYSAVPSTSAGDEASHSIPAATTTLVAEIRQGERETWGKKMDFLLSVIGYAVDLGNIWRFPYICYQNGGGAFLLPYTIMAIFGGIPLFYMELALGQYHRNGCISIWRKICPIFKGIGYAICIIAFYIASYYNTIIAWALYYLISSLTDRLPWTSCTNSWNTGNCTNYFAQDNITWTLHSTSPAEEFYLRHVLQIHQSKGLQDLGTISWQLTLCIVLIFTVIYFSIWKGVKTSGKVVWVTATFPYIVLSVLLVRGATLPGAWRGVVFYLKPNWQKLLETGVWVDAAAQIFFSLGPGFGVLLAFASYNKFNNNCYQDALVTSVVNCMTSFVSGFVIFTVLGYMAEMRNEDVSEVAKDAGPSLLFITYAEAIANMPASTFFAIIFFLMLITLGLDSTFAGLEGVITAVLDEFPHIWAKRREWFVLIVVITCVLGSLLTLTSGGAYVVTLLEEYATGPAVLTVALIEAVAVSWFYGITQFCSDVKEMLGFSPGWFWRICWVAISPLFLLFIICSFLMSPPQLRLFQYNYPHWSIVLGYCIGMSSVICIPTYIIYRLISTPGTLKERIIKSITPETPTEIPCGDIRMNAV
T1 sequence (P31645 whole entry): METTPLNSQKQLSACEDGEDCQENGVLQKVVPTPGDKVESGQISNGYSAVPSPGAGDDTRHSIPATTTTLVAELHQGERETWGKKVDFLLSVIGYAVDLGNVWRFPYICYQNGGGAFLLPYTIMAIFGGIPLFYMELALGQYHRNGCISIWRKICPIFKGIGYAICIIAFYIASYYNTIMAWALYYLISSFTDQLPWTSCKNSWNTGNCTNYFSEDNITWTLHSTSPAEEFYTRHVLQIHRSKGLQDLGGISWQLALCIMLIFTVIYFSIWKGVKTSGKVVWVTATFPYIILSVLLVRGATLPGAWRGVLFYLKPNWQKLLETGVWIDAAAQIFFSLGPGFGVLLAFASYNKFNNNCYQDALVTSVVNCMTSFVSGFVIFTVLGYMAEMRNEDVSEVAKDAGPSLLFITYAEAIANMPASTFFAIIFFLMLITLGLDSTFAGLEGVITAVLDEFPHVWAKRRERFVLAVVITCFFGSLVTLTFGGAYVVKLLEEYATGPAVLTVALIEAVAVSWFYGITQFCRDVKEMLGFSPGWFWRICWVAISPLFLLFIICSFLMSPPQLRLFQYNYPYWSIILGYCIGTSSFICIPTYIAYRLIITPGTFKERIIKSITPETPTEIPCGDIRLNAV

| SMILES | Ki (human SERT) [nM] | Kb (human H3 receptor [1]) [nM] | Ki (human H3 receptor [2]) [nM] | Kb (human H3 receptor [1]; read-out: pA2 (converted)) [nM] | Ki (Rat SERT; [3]) [nM] | Ki (Rat SERT; Rat SERT Ki (nM), rat brain membranes without cerebellum, 0.6 nM [3H]-Citalopram, 60 min at 25° C.) [nM] | Ki (Rat SERT) [nM] |
| --- | --- | --- | --- | --- | --- | --- | --- |
| CN1Cc2cc(OCCCN3CCCCC3)ncc2C(c2ccc(Cl)c(Cl)c2)C1 (racemic) [Example 16, 4-(3,4-Dichloro-phenyl)-2-methyl-7-(3-piperidin-1-yl-propoxy)-1,2,3,4-tetrahydro-[2,6]-naphthyridine] | 120 | 20 | 18 | – | – | – | – |
| CCN(CC)CCCOc1cc2c(cn1)C(c1ccc(Cl)c(Cl)c1)CNC2 (centres unmarked) [Example 21, {3-[8-(3,4-Dichloro-phenyl)-5,6,7,8-tetrahydro-[2,6]naphthyridin-3-yloxy]-propyl}-diethyl-amine] | 26 | – | 7 | 15.8 | 15 | – | – |
| Clc1ccccc1C1CNCc2cc(OCCCN3CCCCC3)ncc21 (centres unmarked) [Example 25, 4-(2-Chloro-phenyl)-7-(3-piperidin-1-yl-propoxy)-1,2,3,4-tetrahydro-[2,6]naphthyridine] | 1330 | – | 1 | 1 | 194 | – | – |
| c1ccc(C2CNCc3cc(OCCCN4CCCCC4)ncc32)cc1 (centres unmarked) [Example 4, 4-Phenyl-7-(3-piperidin-1-yl-propoxy)-1,2,3,4-tetrahydro-[2,6]naphthyridine] | 2330 | – | 1 | 0.794 | 1670 | – | – |
| CCN(CC)CCCOc1cc2c(cn1)C(c1ccccc1)CN(C)C2 (centres unmarked) [Example 7, Diethyl-[3-(6-methyl-8-phenyl-5,6,7,8-tetrahydro-[2,6]naphthyridin-3-yloxy)-propyl]-amine] | 2000 | – | 4 | 0.631 | 583 | – | – |
| COc1ccc(C2CNCc3cc(OCC4CCN(C(C)C)CC4)ncc32)cc1 (centres unmarked) [Example 31, 7-(1-Isopropyl-piperidin-4-ylmethoxy)-4-(4-methoxy-phenyl)-1,2,3,4-tetrahydro-[2,6]-naphthyridine] | 93 | – | 4 | 3.98 | 15 | – | – |
| COc1ccc(C2CNCc3cc(OCCCN4CCCCC4)ncc32)cc1 (centres unmarked) [Example 6, 4-(4-Methoxy-phenyl)-7-(3-piperidin-1-yl-propoxy)-1,2,3,4-tetrahydro-[2,6]-naphthyridine] | 147 | – | 4 | 6.31 | – | 2280 | – |
| Clc1ccc(C2CNCc3cc(OCCCN4CCCCC4)ncc32)cc1 (centres unmarked) [Example 23, 4-(4-Chloro-phenyl)-7-(3-piperidin-1-yl-propoxy)-1,2,3,4-tetrahydro-[2,6]naphthyridine] | 141 | – | 2 | 3.98 | 30 | – | – |
| CN1Cc2cc(OCCCN3CCCCC3)ncc2C(c2ccc(F)cc2)C1 (centres unmarked) [Example 18, 4-(4-Fluoro-phenyl)-2-methyl-7-(3-piperidin-1-yl-propoxy)-1,2,3,4-tetrahydro-[2,6]-naphthyridine] | 362 | – | 9 | 3.98 | 186 | – | – |
| Clc1ccc(C2CNCc3cc(OCCCN4CCCCC4)ncc32)cc1Cl (racemic) [Example 15, 4-(3,4-Dichloro-phenyl)-7-(3-piperidin-1-yl-propoxy)-1,2,3,4-tetrahydro-[2,6]-naphthyridine] | 33 | – | 5 | 12.6 | – | – | 20 |
| Fc1ccc(C2CNCc3cc(OCCCN4CCCCC4)ncc32)cc1 (centres unmarked) [Example 17, 4-(4-Fluoro-phenyl)-7-(3-piperidin-1-yl-propoxy)-1,2,3,4-tetrahydro-[2,6]naphthyridine] | 1030 | – | 2 | 2.51 | – | – | 312 |
| CN1Cc2cc(OCCCN3CCCCC3)ncc2C(c2ccccc2F)C1 (centres unmarked) [Example 2, 4-(2-Fluoro-phenyl)-2-methyl-7-(3-piperidin-1-yl-propoxy)-1,2,3,4-tetrahydro-[2,6]-naphthyridine] | 768 | – | 2 | 1 | 191 | – | – |
